Laboratory results published in US5763430A, “Method of treating a viral infection by administering a steroid compound” (priority 1995, dated 1998).
Converted amounts (≈) assume the structure as drawn. “Also recorded” adds a separate entry of the source.

Assays:
[1] = tested on: chick embryo vitelline capillaries; test: chick embryo vitelline capillary regression assay; assay type: in vivo; settings: for relative activity: Table 5
Experimental: Using the chick embryo vitelline capillaries assay, compounds were tested for their ability to induce capillary regression. Each compound was applied in 0.1 ml of 15% Ficol 400 and PBS onto the embryo, and vascular regression was assessed after 60 minutes.
The 3-day chick embryo consists of an embryonic disc from which numerous vessels emerge and return, forming a "FIG. 8"-shaped structure--the embryo in the center with vascular loops extending outward over both poles. […] Following a lag period of around 15 minutes, the constriction of continuity between capillary and secondary vessels, generally on the "venous" side, was observed. Continued pulsatile blood flow progressed, resulting in a "swelling" of the blind tube, followed by a pinching off of the remaining connection and formation of an enclosed vascular sac resembling a "blood island." This process progressed until only the largest vessels remained intact.

[2] = tested on: stage 59-60 Xenopus tadpole; test: Xenopus tadpole assay; settings: for tadpole response: 10 μg/ml, about 1 hour
E. coli = test: antibiotic activity (MIC); assay type: cell-based; settings: Escherichia coli; E. coli; read-out: MIC
Excerpt: (§1) Thus, it is possible to achieve an antimicrobial steroid with or without squalamine-like pharmacological activity.

C. albicans = test: antibiotic activity (MIC); assay type: cell-based; settings: Candida albicans; C. albicans; read-out: MIC
Excerpt: as §1

S. aureus = test: antibiotic activity (MIC); assay type: cell-based; settings: Staphylococcus aureus; S. aureus; read-out: MIC
Excerpt: as §1

[3] = effect on fasting blood glucose in mice; assay type: in vivo, mouse (male CD-1); settings: i.v.
Experimental: To study the effect of steroid administrator or the NHE responsible for secretion of insulin, several of the aminosterols from shark liver were administered to fasting mice. Male CD-1 mice were assigned to one of four treatment groups. Whole blood glucose was tested using glucometer (Lifescan Glucometer II and One Touch test strips). Statistical analysis was via one-way analysis of variance (ANOVA) followed by subsequent Bonferonni's t-test.

[4] = tested on: Human ovarian carcinoma SKOV3; test: growth inhibition in vitro; assay type: cell-based; settings: SKOV3
Experimental: As set forth in Table 7 below, all malignant tumors evaluated in tissue culture, endothelial cells and vascular smooth muscle cells were sensitive to inhibition. Thus, compound 1436 has application in the control of growth factor dependent proliferation of many types of tissue.
Using the assay described above, the anticancer effects of compound 1437 against several cancer lines was assessed.

[5] = tested on: L1210 lymphoblastic leukemia cells; test: mouse model of leukemia; assay type: in vivo
Excerpt: C57B mice were inoculated with L1210 lymphoblastic leukemia cells at an inoculum that causes leukemia in 100% of animals.

NHE = test: comparison of compound 319 with squalamine through the assays
Excerpt: Moreover, other aminosterols have shown anti-angiogenic activity. Compounds were subjected to a various assays, including the chick embryo capillary regression assay, the tadpole assay, the assay for inhibition of endothelial cord formation, and the assay for direct inhibition of NHE, as described above, to determine their utilities. As evident from the above data, correlation among the results from the chick, tadpole and in vitro inhibition of endothelial cell cord formation assays is excellent.
Through the application of these assays, compound 319 emerged as an attractive alternative to squalamine. […] Further properties of compound 319 are discussed below.

[6] = tested on: human microvascular cells; test: inhibition of endothelial cell cord formation in vitro; assay type: cell-based; settings: for minimal effective concentration: Homo sapiens, Endothelial cell, Table II, read-out: Minimum Effective Concentration, Cord Formation; as to effect on endothelial cord formation: key: +: Inhibition of angiogenesis; -: No inhibition of angiogenesis; Toxic; *: cell rounding @ 10 µg/ml
Excerpt: Endothelial cells have the capacity in vitro to form tubular aggregates resembling capillaries in various early stages of formation. This conversion occurs under relatively specific conditions, in which essential growth factors along with an effective substratum are provided. It has been shown that both the interaction of growth factors with the endothelial cell and its attachment to a substratum activate the NHE. The activation of this exchanger is believed to be required for subsequent morphologic transformation of the endothelial cell into a multicellular tubular structure.
To assess the effect of compounds on the cord-like structures formed by human microvascular cells when plated in the presence of VEGF (Vascular Endothelial Growth Factor) and basic fibroblast growth factor on a collagen matrix, a standard cord formation assay was used.

B16 melanoma = test: suppression of growth of B16 melanoma in C57B mice; assay type: in vivo, mouse; settings: subcutaneous, C57B mice, FIG. 6
Experimental: The growth of B16 melanoma in C57B mice is dependent upon neovascularization.
Using the growth of B16 melanoma cells in C57B mice, a recognized model for the evaluation of inhibitors of angiogenesis on the growth of cancers, the effects of subcutaneous, intraperitoneal and oral administration of squalamine were evaluated.
Based on the idea that tumor growth involves both the clonal expansion of a malignant cell along with the development of a supporting vascular supply, a combination of compound 1436 with squalamine was tested to determine whether it would achieve a synergistic effect on solid tumor growth. This concept was evaluated in the B16 melanoma model.
Animals were implanted with B16 melanoma followed by treatment with compound 1436 or 1256 administered in a combined schedule or separately. […] Thus, a combination of these two compounds achieves a therapeutic benefit in tumors dependent on neovascularization that may prevent metastatic spread.

P. aerug = test: antibiotic activity (MIC); assay type: cell-based; settings: P. aerug; read-out: MIC
Excerpt: as §1

Lewis lung carcinoma = test: cytotoxic activity against cancer cells; assay type: cell-based
Human melanoma WM 1167 = test: cytotoxic activity against cancer cells; assay type: cell-based
human melanoma = test: effect on growth of human melanoma over time / mode of cell death; assay type: cell-based
[7] = effect on arterial resistance in the rat; assay type: in vivo; settings: 40 μg noradrenaline, 30 minutes after compound 1436
Experimental: A 200-g rat was catheterized in the right carotid artery, and the compound was introduced over a ten-second period to a total dosage of 5 mg/kg. Within 30 seconds, the mean arterial pressure had fallen from about 100 mm Hg to about 70 mm Hg, with a marked reduction in pulse pressure from about 40 mm to about 10 mm. […] If cardiac output was basically unaffected, reduction in blood pressure would have resulted principally from a reduction in system resistance.
At that time, 40 μg of noradrenaline was introduced.

| SMILES | tadpole response [2] | MIC (E. coli) | MIC (C. albicans) | MIC (S. aureus) | effect on endothelial cord formation ([6]; 0.1 μg/ml) | effect on endothelial cord formation ([6]; 1.0 μg/ml) | effect on endothelial cord formation ([6]; 10.0 μg/ml) | MIC (P. aerug) | also measured |
| --- | --- | --- | --- | --- | --- | --- | --- | --- | --- |
| CC(COS(=O)(=O)O)C(=O)CC[C@@H](C)[C@H]1CC[C@H]2[C@@H]3[C@H](O)C[C@H]4C[C@@H](NCCCNCCCCN)CC[C@]4(C)[C@H]3CC[C@]12C (single isomer, unassigned) [Compound 1360] | Swelling and lysis of certain erythrocytes occurred, resulting in accumulation of nuclei within certain small vessels of the tail | 128 µg/mL (≈ 199 µM) | 32 µg/mL (≈ 49.8 µM) | 8 µg/mL (≈ 12.5 µM) |  |  |  |  | effect on blood circulating through embryonic vessels ([1]; within 20 minutes): exhibited a brighter red color; tadpole response ([2]; listed as compound 1360): extensive vasocclusion occurred within 60 minutes throughout the tail |
| CC(C)C(CO)(CC[C@@H](C)[C@H]1CC[C@H]2[C@@H]3[C@H](O)C[C@H]4C[C@@H](NCCCNCCCCN)CC[C@]4(C)[C@H]3CC[C@]12C)OS(=O)(=O)O (single isomer, unassigned) [Compound 1437] | Epithelium covering the embryonic portions of the animal, such as the tail and antennae, began to slough off in sheets; also recorded: the larval skin was observed to shed off in a sheet |  |  |  |  |  |  |  | hyperglycemia [3]: caused hyperglycemia in mice; anticancer activity [4]: exhibit anticancer activity |
| N.N.[Cl][Pt][Cl] [Cisplatin, reference compound] |  |  |  |  |  |  |  |  | hematological profile [5]: profound anemia by day 28 |
| C[C@H](CCC(=O)O)[C@H]1CC[C@H]2[C@@H]3CC[C@H]4C[C@@H](NCCCNCCCCN)CC[C@]4(C)[C@H]3CC[C@]12C [Compound 319] | common vascular occlusive effect | 32 to 64 µg/mL (≈ 63.5 to 127 µM) | 8 µg/mL (≈ 15.9 µM) | 64 µg/mL (≈ 127 µM) | + | + | + | 32 µg/mL (≈ 63.5 µM) | CNS effects (specificity) (NHE): no CNS effects; potency as an NHE inhibitor vs squalamine (NHE): superior to squalamine; effect on endothelial cord formation ([6]; 0.01 μg/ml): -; relative activity [1]: especially active; control of B16 melanoma (B16 melanoma): achieved control of B16 in C57B mice to an extent almost comparable to squalamine |
| CC(C)CCC[C@@H](C)[C@H]1CC[C@H]2[C@@H]3CC[C@H]4C[C@@H](NCCCNCCCCNCCCN)CC[C@]4(C)[C@H]3CC[C@]12C [Compound 353] |  | 128 µg/mL (≈ 223 µM) | 32 µg/mL (≈ 55.8 µM) | 16 µg/mL (≈ 27.9 µM) | + | + | + | 64 µg/mL (≈ 112 µM) | IC50 (Lewis lung carcinoma): 1.9 µg/mL (≈ 3.32 µM); IC50 (Human melanoma WM 1167): 3 µg/mL (≈ 5.24 µM); minimal effective concentration [6]: 10 µg/mL; vitelline capillary regression, potency in words [1]: no effect on the chick embryo capillary bed; similarity of pharmacologic activity in tadpole assay ([2]; in vivo): effects like those produced by compound 1436; mode of cell death (human melanoma): apoptotic cell death has been induced |
| C[C@H](CCC(=O)O)[C@H]1CC[C@H]2[C@@H]3[C@H](O)C[C@@H]4C[C@@H](NCCN)CC[C@]4(C)[C@H]3CC[C@]12C [Compound 415] |  | 128 µg/mL (≈ 294 µM) | 256 µg/mL (≈ 589 µM) | 128 µg/mL (≈ 294 µM) | - | - | +/T | 256 µg/mL (≈ 589 µM) | minimal effective concentration [6]: > 10 µg/mL; relative activity [1]: especially active |
| NC[C@H](O)c1ccc(O)c(O)c1 [noradrenaline, reference compound] |  |  |  |  |  |  |  |  | blood pressure after noradrenaline [7]: An almost immediate increase in blood pressure |
